In patent publication US20250353912A1, “COMPOSITIONS AND METHODS COMPRISING ANTIBODIES THAT BIND TO COVALENT PEPTIDE CONJUGATES” (New York University, priority 2022, published 2025):

What was measured:
[1] = cited from earlier work
[2] = system: H2122 cells; experiment: Cell viability following exposure to sotorasib for 72 hr; assay type: cell-based; settings: FIG. 43A
[3] = system: H358 cells; experiment: as above; assay type: cell-based; settings: 0.1 μM sotorasib, FIG. 43A
[4] = second line disease, versus docetaxel

C=CC(=O)N1CCN(c2nc(=O)n(-c3c(C)ccnc3C(C)C)c3nc(-c4c(O)cccc4F)c(F)cc23)[C@@H](C)C1 [sotorasib]
patients removed from the study because of liver toxicity ([1]; in vivo): six patients | patients with drug-induced liver injury ([1]; in vivo): two patients | patients with grade 3/4 liver toxicity ([1]; in vivo): 10% | overall survival [1, 4]: no impact | progression-free survival [1, 4]: improved by one month | sotorasib concentration up to which H2122 is resistant [2]: ~10 µM | killing of H358 cells [3]: nearly all of the H358 cells were killed
